Where a name gives a salt, the structure may show the parent alone. Read-outs that look alike come from different tables or passages of the source.
What was measured:
[1] = Solubility (aqueous buffers, water, DMSO); type: physicochemical
Description: Replacement of the 5′-oxygen atom in the acyl-sulfamate with a nitrogen affords an acyl-sulfamide backbone, which increases the pKa of the backbone NH by 2-3 units.

hHint1 [2] = biological target: T1, hHint1 (Homo sapiens (Human), UniProt P49773); test: Isothermal titration calorimetry (ITC) of hHint1-ligand complexes; type: binding; conditions: for Kd / ΔG / ΔH / −TΔS: ITC, hHint1; for Kd: 20° C.
T1 sequence (P49773 whole entry): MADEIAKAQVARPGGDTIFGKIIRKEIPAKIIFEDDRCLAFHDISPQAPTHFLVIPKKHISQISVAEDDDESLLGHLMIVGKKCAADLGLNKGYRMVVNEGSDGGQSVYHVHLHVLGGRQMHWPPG
Procedure: Isothermal Titration Calorimetry (ITC) ITC experiments were conducted on a MicroCal Auto-ITC200 system (GE Healthcare life sciences). […] To determine the dissociation constant of stock concentration (300-400 uM) of inhibitors was titrated with 15-20 uM of Hint1. Twenty injections of ligand were injected (injection volume 2 ul) into the protein cell. […] The in vitro binding affinity of the new series was evaluated of analogues for hHint1 using isothermal calorimetry (ITC).

ICR mice [3] = test: Development of morphine analgesic tolerance, tail flick assay; type: in vivo, mouse; conditions: HINT1 inhibitor+morphine intrathecally for 3 days, morphine challenge on Day 4
ICR mice [4] = test: Spared nerve injury (SNI), von Frey mechanical threshold testing; type: in vivo, mouse; conditions: for SNI-induced mechanical hypersensitivity, injection on day 7 following injury: 1 nmol intrathecally 7 days post spared nerve injury; for SNI-induced mechanical hypersensitivity, pretreatment: 1 nmol intrathecally prior to spared nerve injury
Procedure: Male and Female ICR mice (25-30 g) were given 1 nmol of TpGc prior to (Panel A) or 7 days post (Panel B) spared nerve injury. A separate cohort (Panel C) of male ICR mice (25-50 g) were given 1 nmol of compound 7 intrathecally both prior to and 7 days post spared nerve injury. All cohorts were evaluated with Von Frey mechanical threshold testing.
Male and female ICR mice were given 1 nmol of HINT1 inhibitor TpGc or 7 intrathecally either immediately prior to or 7 days following induction of neuropathic pain via spared nerve injury (Decosterd, 2000). Briefly, an incision is made into the leg of the mouse directly above the branching of the sciatic nerve. The peroneal and tibial branches of the nerve are ligated and cut while the sural branch is left intact, leading to a localized hypersensitivity on the lateral portion of the hindpaw. Von Frey mechanical testing was performed prior to surgery and for up to 7 days post surgery.

ICR mice [5] = test: Inhibition of morphine inhibition of NMDA-evoked scratching and biting behavior; type: in vivo, mouse; conditions: male mice, intrathecal pretreatment before morphine and NMDA
Procedure: Male ICR mice (25-30) were given TpGc (10 nmol) 10 minutes before morphine sulfate (10 nmol) intrathecally. After a period of 10 minutes, NMDA was injected intrathecally and scratching and biting behaviors were quantified. The MPE % was calculated using morphine alone as the positive control.
Male mice were given intrathecal treatment of either morphine or morphine+a HINT1 inhibitor. They were then given an intrathecal injection of NMDA and scratching and biting behaviors were counted for 1 minute. […]

hHint1 [6] = biological target: T1, hHint1; conditions: ITC, cited from earlier work
hHint1 [7] = biological target: T1, hHint1; test: Fluorescence assay of hHint1 activity at fixed saturating substrate concentration; type: biochemical
Description: The effect of a non-hydrolyzable nucleotide analog Bio-AMS was compared with compound 3 on the activity of hHint1 using a fluorescence assay described previously.^3
Isothermal titration calorimetry (ITC) was used to investigate the nature of non-covalent interactions on the inhibitory activity of Bio-AMS on hHint1.

mice [8] = conditions: icv, cited from earlier work
mice [9] = conditions: single icv administration, CCI mice, cited from earlier work
[10] = data adapted from Garzon et al.

Compound | stock solutions easily prepared in aqueous buffers [1] | Kd (hHint1 [2]) | ΔG (hHint1 [2]) | ΔH (hHint1 [2]) | −TΔS (hHint1 [2]) | morphine potency and efficacy after tolerance development protocol (ICR mice [3]) | SNI-induced mechanical hypersensitivity, injection on day 7 following injury (ICR mice [4]) | SNI-induced mechanical hypersensitivity, pretreatment (ICR mice [4]) | ED50, attenuation of morphine's inhibition of NMDA-evoked behavior (ICR mice [5]) | further results
O=C(CCc1c[nH]c2ccccc12)NS(=O)(=O)OC[C@H]1O[C@@H](n2cnc3c2ncn2ccnc32)[C@@H](O)C1O (stereo partly drawn) [Compound 7, 5′-O—[N-(3-Indolepropionic acid)sulfamoyl]EthenoAdenosine Triethylammonium Salt] | ≤ 20 mM | – | – | – | – | equivalent potency and efficacy compared to the saline pre-treatment | transient reversal that resolved at 4 hours post injection | did not lead to an attenuation of pain behavior | 0.47 nM | –
Nc1nc2c(ncn2C2OC(COS(=O)(=O)NC(=O)CCc3c[nH]c4ccccc34)C(O)C2O)c(=O)[nH]1 (single isomer, unassigned) [Compound 4, 5′-O—[N-(3-Indolepropionic acid)sulfamoyl] Guanosine Triethylammonium Salt] | – | 810 ± 110 nM | – | – | – | – | – | – | – | –
Nc1nc2c(ncn2[C@@H]2O[C@H](COC(=O)NCCc3c[nH]c4ccccc34)[C@@H](O)[C@H]2O)c(=O)[nH]1 [Compound 3, guanosine-5′-tryptamine carbamate] | – | – | – | – | – | equivalent potency and efficacy compared to the saline pre-treatment | transient reversal of mechanical hypersensitivity | sustained attenuation of SNI-induced mechanical hypersensitivity | 0.61 nM | aqueous solubility ([1]; in words): poor solubility; ΔG (hHint1 [6]; [10]): -4.1 ± 2.0 kcal/mol; ΔH (hHint1 [6]; [10]): -13.54 ± 1.00 kcal/mol; −TΔS (hHint1 [6]; [10]): 9.54 ± 4.17 kcal/mol; Kd (hHint1 [6]; data adapted from previously published result by Garzon et al.): 3650 ± 1000 nM; IC50 (hHint1 [7]): 25500 ± 6000 nM; effect on development of morphine tolerance (mice [8]; listed as TpGc): reduced the development of acute tolerance; effect on morphine analgesia / antinociception (mice [8]; listed as TpGc): potentiated morphine-evoked antinociception; effect on development of morphine tolerance (mice [8]): rescues and prevents the development of NMDAR mediated morphine tolerance; effect on morphine analgesia / antinociception (mice [8]): enhances morphine analgesia; mechanical allodynia (mice [9]): reduce mechanical allodynia in animals for several days; mechanical allodynia (mice [9]; listed as TpGc): significant attenuation of mechanical allodynia that persisted for several days

Second part, led by results:

stock solutions easily prepared in aqueous buffers [1] | Kd (hHint1 [2]) | ΔG (hHint1 [2]) | ΔH (hHint1 [2]) | −TΔS (hHint1 [2]) | Compound | morphine potency and efficacy after tolerance development protocol (ICR mice [3]) | SNI-induced mechanical hypersensitivity, injection on day 7 following injury (ICR mice [4]) | SNI-induced mechanical hypersensitivity, pretreatment (ICR mice [4]) | ED50, attenuation of morphine's inhibition of NMDA-evoked behavior (ICR mice [5]) | further results
up to 5 mM | 920 ± 70 nM | -8.24 ± 0.12 kcal/mol | -14.75 ± 0.12 kcal/mol | 6.57 ± 0.17 kcal/mol | Nc1nc2c(ncn2[C@@H]2O[C@H](CNS(=O)(=O)NC(=O)CCc3c[nH]c4ccccc34)C(O)C2O)c(=O)[nH]1 (stereo partly drawn) [Compound 6, 5′-N—[N-(3-Indolepropionic acid)sulfamoyl] Guanosine Triethylammonium Salt] | – | – | – | – | –
up to 5 mM | 2900 ± 250 nM | -5.81 ± 1.0 kcal/mol | -13.59 ± 1.12 kcal/mol | 7.71 ± 0.27 kcal/mol | CCCC(=O)NS(=O)(=O)OC[C@H]1O[C@@H](n2cnc3c(=O)[nH]c(N)nc32)C(O)C1O (stereo partly drawn) [Compound 5] | – | – | – | – | decrease in the enthalpy of binding (hHint1 [2]; compared with compound 4): ~2 kcal/mol; fold greater dissociation constant in comparison to 4 (hHint1 [2]; compared with compound 4): 3-4 fold
up to 5 mM | – | -8.46 ± 0.4 kcal/mol | -16.51 ± 0.17 kcal/mol | 8.05 ± 0.88 kcal/mol | Nc1nc2c(ncn2[C@@H]2O[C@H](COS(=O)(=O)NC(=O)CCc3c[nH]c4ccccc34)C(O)[C@@H]2O)c(=O)[nH]1 (stereo partly drawn) [Compound 4, 5′-O—[N-(3-Indolepropionic acid)sulfamoyl] Guanosine Triethylammonium Salt] | – | – | – | – | fold increase in binding affinity over compound 3 (hHint1 [2]; compared with compound 3): 4.5 fold

— patent publication US10513520B2, “Sulfamide and sulfamate inhibitors of hHint1” (Regents of the University of Minnesota, priority 2016, dated 2019)
